According to patent publication US7914817B2, “Treatment of inflammatory bowel disease” (Ed. Geistlich Soehne AG fuer Chemische Industrie, priority 2000, dated 2011):

Experiments:
[1] = tested on: inflammatory response in intestinal mucosa in patients with active inflammatory bowel disease; assay: Oral taurolidine in patients with active IBD: inflammatory response in intestinal mucosa (Example 2); assay type: in vivo
From the text: This example evaluates the beneficial effect of oral administration of taurolidine on amelioration of inflammatory response in intestinal mucosa in patients with active inflammatory bowel disease. This Example measures proinflammatory cytokines, angiogenic cytokines, reactive oxygen species and nitric oxide in the mucosal biopsy cultures in patients with IBD pre- and post-taurolidine administration. Local mucosal recruited PMN and mononuclear leukocyte-associated proinflammatory cytokine and angiogenic cytokine expression in patients with IBD are assessed pre- and post-taurolidine treatment.
• 1) The specimens of standard intestinal mucosal biopsy are collected from patients with IBD on the day before taurolidine administration, and day 5 and day 10 after taurolidine administration, and incubated with completed culture medium for different time points. The supernatants from the biopsy cultures are harvested by centrifugation and stored at −80° C. for measurement of proinflammatory cytokines (TNF-α, IL-1β, IL-6), angiogenic cytokines (VEGF, TGF-β1), lipid peroxides (malonaldehyde), nitric oxide and peroxynitrite. • 2) The mononuclear leukocytes from the above specimens of mucosal biopsy are isolated using the technique of collagenase-digestion and density gradient sedimentation. […]

[2] = tested on: systemic inflammatory response in patients with active inflammatory bowel disease; assay: Oral taurolidine in patients with active IBD: systemic inflammatory response (Example 1); assay type: in vivo; conditions: pre- vs post-administration (day 2, 5, 10)
Protocol: This experiment evaluates the beneficial effects of oral administration of taurolidine on attenuation of systemic inflammatory response in patients with active inflammatory bowel disease. This Example measures systemic proinflammatory and angiogenic cytokines, systemic reactive oxygen species and nitric oxide in patients with IBD pre- and post-taurolidine administration. Secondly, circulating PMN and monocytes from patients with IBD are assessed for their adhesion receptor expression, and their ability to release proinflammatory and angiogenic cytokines, as well as reactive oxygen species and nitric oxide following taurolidine treatment.
• 1) Peripheral venous blood samples are collected from patients on the day before taurolidine administration, and day 2, day 5 and day 10 after taurolidine administration. Serum samples are harvested by centrifugation and stored at −80° C. for measurement of serum levels of endotoxin, LPS binding protein (LBP), and soluble CD14, serum proinflammatory cytokines (TNF-α, IL-1β, IL-6), serum angiogenic cytokines (VEGF, TGF-β1), serum lipid peroxides (malonaldehyde), nitric oxide and peroxynitrite. • 2) Receptor expression of CD11a, CD11b, CD18, and CD14 on PMN and monocytes in the whole blood samples are assessed on the day before taurolidine administration, and day 2, day 5, and day 10 after taurolidine administration. […]

[3] = tested on: gram positive and gram negative bacteria and fungi; conditions: cited from earlier work
[4] = humans and animals, intravenous and intraperitoneal administration; cited from earlier work
[5] = metabolized to taurine, carbon dioxide and water; cited from earlier work

Structure (SMILES): O=S1(=O)CCN(CN2CCS(=O)(=O)NC2)CN1 [Taurolidine, bis(1,1-dioxoperhydro-1,2,4-thiadiazin-4-yl)methane]
- pathological changes in intestinal mucosa ([1]; day before vs day 5 and day 10): improves pathological changes in intestinal mucosa
- proinflammatory cytokines, angiogenic cytokines, reactive oxygen species, recruitment of PMN and mononuclear leukocytes in the intestinal mucosa ([1]; mucosal biopsy): downregulation
- systemic proinflammatory and angiogenic cytokine levels, PMN and monocyte adhesion receptor expression, lipid peroxides, nitric oxide, peroxynitrite [2]: ameliorates these phenomena
- antimicrobial activity [3]: broad spectrum of antimicrobial activity
- toxicity / side effects [4]: non-toxic to humans and animals and is free from side effects
- half life [5]: short half life
